Reference: PMC10771525 (Communications Biology, 2024)
Where no end group is shown, it is not given here.

What was measured:
CHRM4 = CHRM4 (Homo sapiens, UniProt P08173); assay: GPCR panel (control), Arrestin, CHO-K1; format: cell-based; details: reference agonist
CHRM5 = CHRM5 (Homo sapiens, UniProt P08912); assay: GPCR panel (control), Arrestin, CHO-K1; format: cell-based; details: reference agonist
CHRM2 = CHRM2 (Homo sapiens, UniProt P08172); details: reference agonist, CHRM2, CHO-K1, Arrestin
CNR1 = CNR1 (Homo sapiens, UniProt P21554); details: reference agonist, CNR1, CHO-K1, Arrestin
CNR2 = CNR2 (Homo sapiens, UniProt P34972); details: reference agonist, CNR2, CHO-K1, Arrestin
DRD2L = DRD2L (Homo sapiens, UniProt P14416); details: reference agonist, CHO-K1, Arrestin
DRD2S = DRD2S (Homo sapiens, UniProt P14416); details: reference agonist, CHO-K1, Arrestin
DRD4 = DRD4 (Homo sapiens, UniProt P21917); details: reference agonist, DRD4, CHO-K1, Arrestin
GPR120 = GPR120 (Homo sapiens, UniProt Q5NUL3); assay: GPCR panel (control), Arrestin, CHO-K1; format: cell-based; details: reference agonist
HRH2 = HRH2 (Homo sapiens, UniProt P25021); details: reference agonist, HRH2, CHO-K1, Arrestin
OXTR = biological target: T1, OXTR (Homo sapiens, UniProt P30559); assay: GPCR panel (control), Arrestin, CHO-K1; format: cell-based; details: reference agonist
T1 construct: expressed in transfected cells; host or cells: CHO-K1

ADRA1B = ADRA1B (Homo sapiens, UniProt P35368); assay: GPCR panel (control), Arrestin, CHO-K1; format: cell-based; details: reference agonist
PTGER2 = PTGER2 (Homo sapiens, UniProt P43116); assay: GPCR panel (control), Arrestin, CHO-K1; format: cell-based; details: reference agonist
PTGER3 = PTGER3 (Homo sapiens, UniProt P43115); assay: GPCR panel (control), Arrestin, CHO-K1; format: cell-based; details: reference agonist
PTGER4 = PTGER4 (Homo sapiens, UniProt P35408); assay: GPCR panel (control), Arrestin, HEK-293; format: cell-based; details: reference agonist, PTGER4, HEK-293, Arrestin
TACR3 = biological target: T2, TACR3 (Homo sapiens, UniProt P29371); assay: GPCR panel (control), Arrestin, CHO-K1; format: cell-based; details: reference agonist
T2 construct: expressed in transfected cells; host or cells: CHO-K1

UTR2 = biological target: T3, UTR2 (Homo sapiens, UniProt Q9UKP6); assay: GPCR panel (control), Arrestin, CHO-K1; format: cell-based; details: reference agonist
T3 construct: expressed in transfected cells; host or cells: CHO-K1

F2RL3 = biological target: T4, F2RL3 (Homo sapiens, UniProt Q96RI0); assay: GPCR panel (control), Arrestin, CHO-K1; format: cell-based; details: reference agonist
T4 construct: expressed in transfected cells; host or cells: CHO-K1

CALCR = CALCR (Homo sapiens, UniProt P30988); details: reference agonist, U2OS, Arrestin
CALCR + RAMP2 = CALCR + RAMP2 (Homo sapiens, UniProt O60895+P30988); details: reference agonist, CALCR + RAMP2, CHO-K1, Arrestin
CALCR + RAMP3 = CALCR + RAMP3 (Homo sapiens, UniProt O60896+P30988); details: reference agonist, CALCR + RAMP3, CHO-K1, Arrestin
EDNRA = EDNRA (Homo sapiens, UniProt P25101); details: reference agonist, CHO-K1, Arrestin
EDNRB = biological target: T5, EDNRB (Homo sapiens, UniProt P24530); assay: GPCR panel (control), Arrestin, CHO-K1; format: cell-based; details: reference agonist
T5 construct: expressed in transfected cells; host or cells: CHO-K1

GLP1R = GLP1R (Homo sapiens, UniProt P43220); details: reference agonist, CHO-K1, Arrestin
HSR1A = HSR1A (Homo sapiens, UniProt Q92847); details: reference agonist, U2OS, Arrestin
HCRTR1 = biological target: T6, HCRTR1 (Homo sapiens, UniProt O43613); assay: GPCR panel (control), Arrestin, CHO-K1; format: cell-based; details: reference agonist
T6 construct: expressed in transfected cells; host or cells: CHO-K1

OPRL1 = OPRL1 (Homo sapiens, UniProt P41146); details: reference agonist, OPRL1, CHO-K1, Arrestin
ADCYAP1R1 = ADCYAP1R1 (Homo sapiens, UniProt P41586); details: reference agonist, ADCYAP1R1, CHO-K1, Arrestin
PTHR1 = biological target: T7, PTHR1 (Homo sapiens, UniProt Q03431); assay: GPCR panel (control), Arrestin, CHO-K1; format: cell-based; details: reference agonist
T7 construct: expressed in transfected cells; host or cells: CHO-K1

PPYR1 (NPY4) = biological target: T8, PPYR1 (NPY4) (Homo sapiens, UniProt P50391); assay: GPCR panel (control), Arrestin, CHO-K1; format: cell-based; details: reference agonist
T8 construct: expressed in transfected cells; host or cells: CHO-K1

BDKRB2 = biological target: T9, BDKRB2 (Homo sapiens, UniProt P30411); assay: GPCR panel (control), Arrestin, CHO-K1; format: cell-based; details: reference agonist
T9 construct: expressed in transfected cells; host or cells: CHO-K1

RXFP3 = biological target: T10, RXFP3 (Homo sapiens, UniProt Q9NSD7); assay: GPCR panel (control), Arrestin, U2OS; format: cell-based; details: reference agonist
T10 construct: expressed in transfected cells; host or cells: U2OS

F2RL1 = biological target: T11, F2RL1 (Homo sapiens, UniProt P55085); assay: GPCR panel (control), Arrestin, U2OS; format: cell-based; details: reference agonist
T11 construct: expressed in transfected cells; host or cells: U2OS

CRHR2 = biological target: T12, CRHR2 (Homo sapiens, UniProt Q13324); assay: GPCR panel (control), Arrestin, CHO-K1; format: cell-based; details: reference agonist
T12 construct: expressed in transfected cells; host or cells: CHO-K1

SCTR = biological target: T13, SCTR (Homo sapiens, UniProt P47872); assay: GPCR panel (control), Arrestin, CHO-K1; format: cell-based; details: reference agonist
T13 construct: expressed in transfected cells; host or cells: CHO-K1

SSTR2 = SSTR2 (Homo sapiens, UniProt P30874); details: reference agonist, SSTR2, CHO-K1, Arrestin
SSTR5 = SSTR5 (Homo sapiens, UniProt P35346); details: reference agonist, SSTR5, CHO-K1, Arrestin
F2R = biological target: T14, F2R (Homo sapiens, UniProt P25116); assay: GPCR panel (control), Arrestin, CHO-K1; format: cell-based; details: reference agonist
T14 construct: expressed in transfected cells; host or cells: CHO-K1

PTHR2 = biological target: T15, PTHR2 (Homo sapiens, UniProt P49190); assay: GPCR panel (control), Arrestin, CHO-K1; format: cell-based; details: reference agonist
T15 construct: expressed in transfected cells; host or cells: CHO-K1

FPR1 = biological target: T16, FPR1 (Homo sapiens, UniProt P21462); assay: GPCR panel (control), Arrestin, CHO-K1; format: cell-based; details: reference agonist
T16 construct: expressed in transfected cells; host or cells: CHO-K1

FPRL1 = biological target: T17, FPRL1 (Homo sapiens, UniProt P25090); assay: GPCR panel (control), Arrestin, CHO-K1; format: cell-based; details: reference agonist
T17 construct: expressed in transfected cells; host or cells: CHO-K1

OPRM1 = OPRM1 (Homo sapiens, UniProt P35372); details: reference agonist, OPRM1, U2OS, Arrestin
CCR9 = assay: GPCR panel (control), Arrestin, CHO-K1; format: cell-based, human; details: reference agonist

T1 sequence (P30559 whole entry): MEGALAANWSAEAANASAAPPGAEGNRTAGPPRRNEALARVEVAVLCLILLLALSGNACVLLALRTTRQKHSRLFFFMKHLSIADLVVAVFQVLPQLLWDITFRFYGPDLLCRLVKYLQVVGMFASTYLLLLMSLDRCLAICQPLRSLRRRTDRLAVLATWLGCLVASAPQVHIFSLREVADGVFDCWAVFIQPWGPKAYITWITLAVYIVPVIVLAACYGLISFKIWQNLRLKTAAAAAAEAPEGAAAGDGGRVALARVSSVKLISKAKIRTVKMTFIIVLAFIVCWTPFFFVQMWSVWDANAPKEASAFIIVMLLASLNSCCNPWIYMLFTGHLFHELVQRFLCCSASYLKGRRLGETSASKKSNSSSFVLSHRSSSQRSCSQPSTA
Chain of PTGER2 (P43116 whole entry): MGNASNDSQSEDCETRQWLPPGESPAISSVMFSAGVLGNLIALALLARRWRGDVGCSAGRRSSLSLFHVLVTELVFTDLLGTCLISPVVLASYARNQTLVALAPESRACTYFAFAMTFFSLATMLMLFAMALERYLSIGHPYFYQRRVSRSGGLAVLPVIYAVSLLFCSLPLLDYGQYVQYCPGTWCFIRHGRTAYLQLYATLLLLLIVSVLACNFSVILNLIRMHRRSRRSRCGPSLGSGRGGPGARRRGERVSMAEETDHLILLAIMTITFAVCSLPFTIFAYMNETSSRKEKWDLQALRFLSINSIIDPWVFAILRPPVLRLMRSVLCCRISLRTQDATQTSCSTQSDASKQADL
Chain of GPR120 (Q5NUL3 whole entry): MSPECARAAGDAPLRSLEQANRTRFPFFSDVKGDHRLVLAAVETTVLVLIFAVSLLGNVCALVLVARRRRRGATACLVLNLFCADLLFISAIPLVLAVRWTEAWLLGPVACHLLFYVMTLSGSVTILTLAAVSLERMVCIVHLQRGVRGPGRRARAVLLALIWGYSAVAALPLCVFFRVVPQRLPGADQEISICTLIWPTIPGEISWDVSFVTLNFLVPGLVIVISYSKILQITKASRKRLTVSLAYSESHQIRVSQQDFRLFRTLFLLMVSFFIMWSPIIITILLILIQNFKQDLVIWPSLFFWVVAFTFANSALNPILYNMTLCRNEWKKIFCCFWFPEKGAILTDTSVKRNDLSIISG
Chain of PTGER3 (P43115 whole entry): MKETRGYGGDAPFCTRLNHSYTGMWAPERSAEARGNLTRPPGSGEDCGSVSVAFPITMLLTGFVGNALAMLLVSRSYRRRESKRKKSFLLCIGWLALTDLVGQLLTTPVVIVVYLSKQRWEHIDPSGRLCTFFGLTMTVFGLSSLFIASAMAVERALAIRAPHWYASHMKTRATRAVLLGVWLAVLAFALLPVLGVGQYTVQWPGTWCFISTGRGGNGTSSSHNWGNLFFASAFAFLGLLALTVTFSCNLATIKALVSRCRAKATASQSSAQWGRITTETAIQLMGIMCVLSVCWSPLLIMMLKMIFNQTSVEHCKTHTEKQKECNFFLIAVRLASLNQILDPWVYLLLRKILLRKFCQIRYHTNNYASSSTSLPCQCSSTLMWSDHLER
Chain of CHRM2 (P08172 whole entry): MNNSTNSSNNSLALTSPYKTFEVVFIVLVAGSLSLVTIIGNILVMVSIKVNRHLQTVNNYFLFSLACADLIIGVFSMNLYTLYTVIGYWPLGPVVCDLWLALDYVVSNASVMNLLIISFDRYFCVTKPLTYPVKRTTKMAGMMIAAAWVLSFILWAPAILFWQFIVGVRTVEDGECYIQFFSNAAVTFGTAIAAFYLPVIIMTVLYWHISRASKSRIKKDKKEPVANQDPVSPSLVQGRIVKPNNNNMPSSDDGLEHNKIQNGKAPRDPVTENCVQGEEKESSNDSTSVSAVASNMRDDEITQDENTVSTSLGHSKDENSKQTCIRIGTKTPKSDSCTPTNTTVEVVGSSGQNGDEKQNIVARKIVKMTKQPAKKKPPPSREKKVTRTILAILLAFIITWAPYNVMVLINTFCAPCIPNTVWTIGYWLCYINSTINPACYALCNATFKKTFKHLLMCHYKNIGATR
T15 sequence (P49190 25-550): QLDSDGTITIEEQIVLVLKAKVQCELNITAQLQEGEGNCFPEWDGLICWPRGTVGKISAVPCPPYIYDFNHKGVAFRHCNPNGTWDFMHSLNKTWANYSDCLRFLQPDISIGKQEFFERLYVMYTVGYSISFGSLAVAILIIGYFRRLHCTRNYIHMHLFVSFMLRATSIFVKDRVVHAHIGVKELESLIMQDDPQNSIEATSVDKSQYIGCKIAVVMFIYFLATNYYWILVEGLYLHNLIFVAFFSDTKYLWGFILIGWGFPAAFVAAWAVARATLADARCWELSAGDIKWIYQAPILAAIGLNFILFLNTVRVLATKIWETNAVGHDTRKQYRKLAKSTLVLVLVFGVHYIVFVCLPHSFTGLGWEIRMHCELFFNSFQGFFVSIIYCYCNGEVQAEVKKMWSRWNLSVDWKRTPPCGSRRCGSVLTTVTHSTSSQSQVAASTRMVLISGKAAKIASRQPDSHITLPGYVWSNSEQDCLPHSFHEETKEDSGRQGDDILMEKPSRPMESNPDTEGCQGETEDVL
Chain of SSTR5 (P35346 whole entry): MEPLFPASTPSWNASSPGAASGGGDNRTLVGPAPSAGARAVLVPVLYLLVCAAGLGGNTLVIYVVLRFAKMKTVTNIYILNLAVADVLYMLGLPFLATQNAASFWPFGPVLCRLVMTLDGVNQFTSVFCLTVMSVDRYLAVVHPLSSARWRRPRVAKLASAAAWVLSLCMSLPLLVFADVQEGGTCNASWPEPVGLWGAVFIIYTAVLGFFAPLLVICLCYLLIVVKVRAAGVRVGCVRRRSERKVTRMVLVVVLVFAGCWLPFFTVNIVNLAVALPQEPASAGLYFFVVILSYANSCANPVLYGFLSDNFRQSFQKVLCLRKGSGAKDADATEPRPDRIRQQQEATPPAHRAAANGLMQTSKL
T9 sequence (P30411 whole entry): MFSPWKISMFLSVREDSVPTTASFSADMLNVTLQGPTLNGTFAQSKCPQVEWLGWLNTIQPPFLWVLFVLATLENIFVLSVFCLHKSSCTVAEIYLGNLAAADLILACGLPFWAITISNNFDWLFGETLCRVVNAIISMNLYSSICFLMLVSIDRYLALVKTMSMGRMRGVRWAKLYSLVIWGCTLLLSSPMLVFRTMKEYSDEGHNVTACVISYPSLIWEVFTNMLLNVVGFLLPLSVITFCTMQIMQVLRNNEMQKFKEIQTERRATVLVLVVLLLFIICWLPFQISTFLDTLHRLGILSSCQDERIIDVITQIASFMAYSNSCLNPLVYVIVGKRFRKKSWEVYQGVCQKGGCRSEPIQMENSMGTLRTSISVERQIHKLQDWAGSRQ
T12 sequence (Q13324 whole entry): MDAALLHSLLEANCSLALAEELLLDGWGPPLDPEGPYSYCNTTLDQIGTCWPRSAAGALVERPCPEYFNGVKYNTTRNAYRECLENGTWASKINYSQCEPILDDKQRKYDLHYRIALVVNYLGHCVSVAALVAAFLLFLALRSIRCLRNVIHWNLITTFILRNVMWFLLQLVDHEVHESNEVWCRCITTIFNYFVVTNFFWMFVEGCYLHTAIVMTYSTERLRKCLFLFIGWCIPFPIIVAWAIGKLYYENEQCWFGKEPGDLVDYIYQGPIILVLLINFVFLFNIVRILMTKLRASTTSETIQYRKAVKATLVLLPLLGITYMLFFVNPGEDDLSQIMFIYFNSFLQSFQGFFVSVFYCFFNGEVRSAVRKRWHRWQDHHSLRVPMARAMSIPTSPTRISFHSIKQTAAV
T5 sequence (P24530 27-442): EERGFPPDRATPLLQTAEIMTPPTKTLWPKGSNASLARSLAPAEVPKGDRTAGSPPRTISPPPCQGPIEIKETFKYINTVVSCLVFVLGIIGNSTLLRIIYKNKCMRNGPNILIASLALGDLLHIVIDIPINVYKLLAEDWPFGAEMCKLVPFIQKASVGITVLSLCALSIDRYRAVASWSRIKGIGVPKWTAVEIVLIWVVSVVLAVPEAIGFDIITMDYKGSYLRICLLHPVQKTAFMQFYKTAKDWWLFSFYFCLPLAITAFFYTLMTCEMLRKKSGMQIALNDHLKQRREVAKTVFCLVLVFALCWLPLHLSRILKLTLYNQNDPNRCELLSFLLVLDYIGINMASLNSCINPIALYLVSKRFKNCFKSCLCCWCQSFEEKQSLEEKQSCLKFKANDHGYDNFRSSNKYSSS
Chain of OPRM1 (P35372 whole entry): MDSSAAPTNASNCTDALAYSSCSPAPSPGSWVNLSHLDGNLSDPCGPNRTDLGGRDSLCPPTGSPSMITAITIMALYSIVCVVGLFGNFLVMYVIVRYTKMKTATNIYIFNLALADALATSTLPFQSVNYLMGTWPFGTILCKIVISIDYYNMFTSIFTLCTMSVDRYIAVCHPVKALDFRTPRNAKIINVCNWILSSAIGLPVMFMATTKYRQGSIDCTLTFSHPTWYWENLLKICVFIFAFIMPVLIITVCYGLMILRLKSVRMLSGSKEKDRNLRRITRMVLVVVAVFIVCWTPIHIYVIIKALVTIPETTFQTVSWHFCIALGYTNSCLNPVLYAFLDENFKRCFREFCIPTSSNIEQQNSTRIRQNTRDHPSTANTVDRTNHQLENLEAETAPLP
T8 sequence (P50391 whole entry): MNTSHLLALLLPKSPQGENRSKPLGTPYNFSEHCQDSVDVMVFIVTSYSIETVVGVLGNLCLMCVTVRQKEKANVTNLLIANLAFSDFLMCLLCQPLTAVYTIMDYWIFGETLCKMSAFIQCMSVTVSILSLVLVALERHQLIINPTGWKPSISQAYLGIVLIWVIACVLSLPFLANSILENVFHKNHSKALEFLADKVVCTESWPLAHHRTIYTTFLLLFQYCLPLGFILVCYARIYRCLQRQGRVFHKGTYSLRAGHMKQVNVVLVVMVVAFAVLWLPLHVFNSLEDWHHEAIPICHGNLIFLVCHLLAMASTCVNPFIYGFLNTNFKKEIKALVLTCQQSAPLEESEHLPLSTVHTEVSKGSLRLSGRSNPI

For `CC(=O)OCC[N+](C)(C)C` [Acetylcholine], the “EC80” value (CHRM4) was 200 µM, the “EC80” value (CHRM5) was 150 µM and the “EC80” value (CHRM2) was 230 µM.

For `CCCCCCC(C)(C)c1ccc([C@@H]2C[C@H](O)CC[C@H]2CCCO)c(O)c1` [CP55940], the “EC80” value (CNR1) was 0.17 µM and the “EC80” value (CNR2) was 0.14 µM.

With `NCCc1ccc(O)c(O)c1` [Dopamine] the “EC80” value (DRD2L) was 18 µM, the “EC80” value (DRD2S) was 5.4 µM and the “EC80” value (DRD4) was 21 µM.

With `O=C(O)CCc1ccc(NCc2cccc(Oc3ccccc3)c2)cc1` [GW9508] the “EC80” value (GPR120) was 570 µM.

For `NCCc1c[nH]cn1` [Histamine], the “EC80” value (HRH2) was 110 µM.

In the case of `CC[C@H](C)[C@@H]1NC(=O)[C@H](Cc2ccc(O)cc2)NC(=O)[C@@H](N)CSSC[C@@H](C(=O)N2CCC[C@H]2C(=O)N[C@@H](CC(C)C)C(=O)NCC(N)=O)NC(=O)[C@H](CC(N)=O)NC(=O)[C@H](CCC(N)=O)NC1=O` [Oxytocin], the “EC80” value (OXTR) is reported as 0.28 µM.

`CNC[C@H](O)c1cccc(O)c1` [Phenylephrine] was tested, and the “EC80” value (ADRA1B) was 10 µM.

With `CCCCC[C@H](O)/C=C/[C@H]1[C@H](O)CC(=O)[C@@H]1C/C=C\CCCC(=O)O` [Prostaglandin E2] the “EC80” value (PTGER2) was 42 µM, the “EC80” value (PTGER3) was 0.98 µM and the “EC80” value (PTGER4) was 0.14 µM.

With `CSCC[C@H](NC(=O)[C@H](CC(C)C)NC(=O)CNC(=O)[C@H](Cc1ccccc1)NC(=O)[C@H](Cc1ccccc1)NC(=O)[C@H](CCC(N)=O)NC(=O)[C@H](CCC(N)=O)NC(=O)[C@@H]1CCCN1C(=O)[C@H](CCCCN)NC(=O)[C@@H]1CCCN1C(=O)[C@@H](N)CCCN=C(N)N)C(N)=O` [Substance P] the “EC80” value (TACR3) was 0.92 µM.

With `CC(C)[C@H](NC(=O)[C@@H]1CSSC[C@H](NC(=O)[C@H](CC(=O)O)NC(=O)[C@@H]2CCCN2C(=O)[C@@H](NC(=O)[C@@H](N)CCC(=O)O)[C@@H](C)O)C(=O)N[C@@H](Cc2ccccc2)C(=O)N[C@@H](Cc2c[nH]c3ccccc23)C(=O)N[C@@H](CCCCN)C(=O)N[C@@H](Cc2ccc(O)cc2)C(=O)N1)C(=O)O` [Urotensin II] the “EC80” value (UTR2) was 0.031 µM.

AYPGKF-NH2 was tested, and the “EC80” value (F2RL3) was 370 µM.

With Calcitonin the “EC80” value (CALCR) was 1.6 µM, the “EC80” value (CALCR + RAMP2) was 0.44 µM and the “EC80” value (CALCR + RAMP3) was 8.9 µM.

For Endothelin-1, the “EC80” value (EDNRA) was 0.19 µM.

With Endothelin-3 the “EC80” value (EDNRB) was 0.26 µM.

With Exendin-4 the “EC80” value (GLP1R) was 0.24 µM.

With Ghrelin the “EC80” value (HSR1A) was 0.38 µM.

Orexin A was tested, and the “EC80” value (HCRTR1) was 0.52 µM.

With Orphanin FQ the “EC80” value (OPRL1) was 0.15 µM.

With PACAP-27 the “EC80” value (ADCYAP1R1) was 0.14 µM.

With PTH(1-34) the “EC80” value (PTHR1) was 0.28 µM.

With Pancreatic polypeptide the “EC80” value (PPYR1 (NPY4)) was 0.062 µM.

With RPPGFSPFR [Bradykinin] the “EC80” value (BDKRB2) was 0.035 µM.

For Relaxin-3, the “EC80” value (RXFP3) was 3.1 µM.

With SLIGRL-NH2 the “EC80” value (F2RL1) was 24 µM.

Sauvagine was tested, and the “EC80” value (CRHR2) was 0.46 µM.

With Secretin the “EC80” value (SCTR) was 0.074 µM.

For Somatostatin 28, the “EC80” value (SSTR2) was 0.093 µM and the “EC80” value (SSTR5) was 1.3 µM.

For TFLLR-NH2, the “EC80” value (F2R) was 1300 µM.

For TIP-39, the “EC80” value (PTHR2) was 0.13 µM.

With WKYMVm-NH2 the “EC80” value (FPR1) was 0.62 µM and the “EC80” value (FPRL1) was 0.067 µM.

In the case of met-Enkephalin, the “EC80” value (OPRM1) is reported as 54 µM.

B1: CCL25 (protein, UniProt O15444 24-150, looked up)
C-C motif chemokine 25: QGVFEDCCLAYHYPIGWAVLRRAWTYRIQEVSGSCNLPAAIFYLPKRHRKVCGNPKSREVQRAMKLLDARNKVFAKLHHNTQTFQAGPHAVKKLSSGNSKLSSSKFSNPISSSKRNVSLLISANSGL
B1 was tested, and the “EC80” value (CCR9) was 14 µM.
